A melting point compilation (Tetko et al.; mined from patent text by program, amines drawn as free bases though some values may be those of a salt)

First: C=C1C(=C)C2OC1C1=C2Cc2c(OC)ccc(OC)c2C1
Second: COc1ccc(Br)c2c1CC(=O)CO2
The melting point of the first is higher: 177 to 178 °C for the first, 97 to 100 °C for the second.

First: CCCCCCCCCCCCc1nnn(C(CCCCCCCCCCCC)C(=O)O)n1 (stereo not given)
Second: CCCCCCCCCCCCCCCCCCCCCCOc1ccc(C(=O)O)cc1
The melting point of the first is lower: 57 to 59 °C for the first, 99 to 102 °C for the second.

First: CC(NC(=O)c1ccc(-c2ccccc2)cc1)C(=O)O (stereo not given)
Second: COC(=O)C=CC(=S)c1ccc(-c2ccccc2)cc1
The melting point of the first is higher: 160 °C for the first, 85 to 86.5 °C for the second.

Compared with `NC(=S)NN1CCOCC1`, `COc1ccc(OC)c(C(=O)Nc2ccc(N3CCOCC3)cc2C(C)=O)c1` is higher in melting point: 168 °C for the first, 172 to 174 °C for the second.

First: CN(C)c1cc(Oc2cccc(C(F)(F)F)c2)nc(C(=O)O)c1
Second: Cc1cc(-c2cccc(C(F)(F)F)c2)nn2cnnc12
The melting point of the first is lower: 61 to 66 °C for the first, 181 to 183 °C for the second.

First: CCCCOC(=O)c1ccc(NCc2cc(Br)ccc2OCc2ccccc2)nn1
Second: N#CCc1c[nH]c2ccc(OCc3ccccc3)c(Cl)c12
The melting point of the first is higher: 133 to 135 °C for the first, 130 to 132 °C for the second.

Compared with `C[C@H](Nc1nc(N=[N+]=[N-])nc(Cl)c1-c1c(F)cc(F)cc1F)C(F)(F)F`, `NS(=O)(=O)c1cccc(NC(=O)c2cnn3c(C(F)(F)F)cc(-c4ccc(OC(F)(F)F)cc4)nc23)c1` is higher in melting point: 152 to 154 °C for the first, 257 °C for the second.

`Cc1ccc(S(=O)(=O)N(C)c2ccc(F)cc2[N+](=O)[O-])cc1` and `COc1c(N(C)S(=O)(=O)c2ccc(C)cc2)ccccc1=O` cannot be ordered by melting point: 93.5 to 94.5 °C for the first, 94.5 °C for the second.

First: CC(C)(C)OC(=O)N1CCC(c2nc3cc(-c4ccc(C#N)cc4)ccc3o2)CC1
Second: CC(=O)COc1ccc(N2N=C3c4cc(F)ccc4CCC3CC2=O)cc1 (stereo not given)
The melting point of the first is lower: 137 to 141 °C for the first, 195 to 196 °C for the second.

First: CC(C)(NS(=O)(=O)c1ccccc1)c1ccccc1
Second: COc1cc(CCc2ccccc2)c(OC)c2c1C(=O)c1ccccc1C2=O
The melting point of the first is higher: 114 to 115 °C for the first, 100 °C for the second.

First: CC(=O)Nc1ccc(C(=O)c2cc(-c3ccc(Cl)cc3)c(N3CCOCC3)s2)cc1
Second: O=C(Nc1ccc(Cl)c(Cl)c1)NS(=O)(=O)c1ccc(Cl)cc1
The melting point of the first is lower: 125 to 127 °C for the first, 195 to 196 °C for the second.

Going from `CC(=O)C=Cc1c(C)c(C)c(C)c2ccoc12` to `Cc1nc(C(C)(C)C)ccc1/C=C/C(=O)Nc1ccc2[nH]c(CO)cc2c1`, the melting point rises from 99 °C to 213 °C.

First: CCOC(=O)n1[nH]c(=O)c2c([N+](=O)[O-])cccc21
Second: CCOC(=O)COc1cccc2c1CCC2=O
The melting point of the first is higher: 234 to 236 °C for the first, 91 to 93 °C for the second.

Compared with `CN1CCC(C)(O)C(C)(C)C1Cc1ccccc1` (stereo not given), `CCC(=Cc1ccccc1)C1=CC=C2C(C1)C(C)(C)CCC2(C)C` (stereo not given) is lower in melting point: 95 to 103 °C for the first, 65 °C for the second.

First: CCCn1cc2c(C3C(=O)Nc4ccc(Br)cc43)nc(NCCc3cccnc3)nc2n1 (stereo not given)
Second: CN(C)CCOc1cnc(Nc2cc(-c3cccc(-n4ncc5cc(C(C)(C)C)cc(F)c5c4=O)c3CO)nn(C)c2=O)cn1
The melting point of the first is higher: 294 to 297 °C for the first, 185 to 190 °C for the second.

Compared with `NC(=S)NN=C(CCCNC(=O)C1CCCCC1)c1ccccc1`, `CN(C)C=CC(=O)c1ccccc1` is lower in melting point: 158 to 159 °C for the first, 88 to 91 °C for the second.

Compared with `CCn1c2ccc(C)cc2c2ccc3ccccc3c21`, `COC(=O)c1ccc(Oc2c(C)n(CC(=O)O)c3ccc(F)cc23)cc1` is higher in melting point: 111 to 114 °C for the first, 195 to 196 °C for the second.

Compared with `CS(=O)c1ccc(-c2ccc(-c3ccc(F)cc3)s2)s1` (stereo not given), `CN(C1CCS(=O)(=O)CC1)S(=O)(=O)c1ccc(Nc2ccnc(Nc3ccc(F)cc3)n2)cc1` is higher in melting point: 153 to 157 °C for the first, 252 °C for the second.

First: CNC(=O)C1=CC(CF)(CF)Oc2cc(Cl)c(Cl)cc21
Second: O=C(NC(=O)c1ccccc1Cl)Nc1cc(C(F)(F)F)c(Cl)cc1Br
The melting point of the first is lower: 141 to 142 °C for the first, 185 °C for the second.

First: CC=CC1=C(O)C(=O)c2ccccc2C1=O
Second: COc1cc(Cl)c2c(=O)c(-c3ccccc3C)coc2c1
The melting point of the first is lower: 133 to 134 °C for the first, 159 to 160 °C for the second.

First: CON=C(C)CC(C)(C)Cn1c(C)nc2c(N)nc3ccccc3c21
Second: CC(C)OCc1cnc2c(N)cccc2c1Cl
The melting point of the first is higher: 193 to 195 °C for the first, 94 to 95 °C for the second.

Compared with `Cc1nc(-c2ccc(OC(F)(F)F)cc2)sc1C(=O)O`, `O=C(O)c1sc(-c2cccnc2)nc1C(F)(F)F` is higher in melting point: 179 to 181 °C for the first, 209 °C for the second.

Compared with `COC(C1=CN(C)CS1)c1ccccc1COc1cc(Cl)ccc1Cl` (stereo not given), `O=C(OCc1ccccc1)N1CCOc2c(Br)cc(Cl)cc21` is higher in melting point: 78.5 to 79.5 °C for the first, 95 to 97.7 °C for the second.

First: Clc1ncnc2c1c(Nc1ccccc1)nn2Cc1ccccc1
Second: OC(c1ccccc1)(c1ccccc1Cl)c1nccn1Cc1ccccc1 (stereo not given)
The melting point of the first is lower: 135 °C for the first, 168 °C for the second.

First: COc1ccc(-c2nn(CC=Cc3ccc(Cl)cc3)c(=O)cc2-c2ccc(OC)c(F)c2)cc1
Second: COc1ccc(N2CCc3c2c2cccc(OC)c2[nH]c3=O)c(C)c1
The melting point of the first is lower: 109 to 111 °C for the first, 188 to 191 °C for the second.

First: NC(=O)CNC(=O)c1ccnc(-c2cccc3cc(COc4cccc(C(F)(F)F)c4)sc23)c1
Second: O=c1c2c(Cc3cccc(C(F)(F)F)c3)n[nH]c2c2cccnc2n1-c1cccc(OC(F)(F)F)c1
The melting point of the first is lower: 185 to 186 °C for the first, 206 to 209 °C for the second.

Compared with `COc1ccc(-c2cc(=Nc3c(C)cc(C)cc3C)n(C)c(=O)n2C)cc1S(C)=O` (stereo not given), `Cc1cc(-c2cc(=O)n(C)[nH]2)c(F)cc1Cl` is higher in melting point: 125 to 135 °C for the first, 155 to 156 °C for the second.

Compared with `COCCOc1ccc(/C=C(\C)C(=O)O)c(Oc2ncc(C(F)(F)F)cc2Cl)c1`, `O=C(O)C1=Cc2cc(Cl)c(Oc3ccc([N+](=O)[O-])cc3)cc2OC1C(F)(F)F` (stereo not given) is higher in melting point: 122 °C for the first, 246 to 248 °C for the second.

First: O=C(O)c1cc(-n2c(-c3ccccc3)cc3c2CCCC3)c(C(F)(F)F)cc1O
Second: CN1C(=O)C(C)(C)c2ccc(C(=O)Nc3ccccc3)cc21
The melting point of the first is higher: 188 to 190 °C for the first, 184 to 186 °C for the second.

First: CC(C)C(NC(=O)c1ccc(C(=O)NCC(=O)OCc2ccccc2)cc1)C(=O)N(CC(=O)NC(C(=O)C(F)(F)F)C(C)C)C1Cc2ccccc2C1 (mixture of isomers)
Second: CCOC(=O)CCC(S)COC(=O)C1=C(C)NC(C)=C([N+](=O)[O-])C1c1ccccc1OCc1ccccc1 (stereo not given)
The melting point of the first is lower: 64 to 66 °C for the first, 133 °C for the second.

Compared with `O=S(=O)(NC1CCCCC1)c1ccc2c(c1)S(=O)(=O)NC1CCCN21` (stereo not given), `COC(=O)Nc1cc(-c2nccs2)[nH]c1C(CC1CCOCC1)c1ccc(S(=O)(=O)C2CC2)cc1` (stereo not given) is lower in melting point: 195 to 197 °C for the first, 120 to 122 °C for the second.

First: Brc1cccc(Oc2ncccc2OCCCc2ccncc2)c1
Second: CC(C)n1nc(-c2c(-c3ccccc3)nn3ccc(OCCc4ccccc4)cc23)ccc1=O
The melting point of the first is lower: 111 to 113 °C for the first, 154 to 156 °C for the second.

First: CC(C)=NNc1nc(C(Cl)(Cl)Cl)ns1
Second: Sc1nsnc1-c1c(Cl)cccc1Cl
The melting point of the first is lower: 66 °C for the first, 91 to 94 °C for the second.

First: C[C@@H](COS(C)(=O)=O)NS(=O)(=O)c1ccccc1[N+](=O)[O-]
Second: CC(=O)N1C(C(=O)O)CSC1c1ccccc1OCCO[N+](=O)[O-] (stereo not given)
The melting point of the first is lower: 125 to 126 °C for the first, 159 to 162 °C for the second.

First: O=C(O)c1ccc(COc2ccc(-c3ccc(-c4c(Cc5ccccc5)oc5ccccc45)cc3)cc2)cc1
Second: CCO[C@H](C(=O)N1C(=O)OC[C@@H]1Cc1ccccc1)[C@H](O)c1ccc2oc(Cc3nc(-c4ccccc4)oc3C)cc2c1
The melting point of the first is higher: 208 to 210 °C for the first, 66 °C for the second.

Compared with `CCn1ncc(C(=O)c2ccc(S(C)(=O)=O)c(CO)c2Cl)c1O`, `CCCCCC(C(=O)O)c1ccc(Cl)cc1Cl` (stereo not given) is lower in melting point: 70 to 76 °C for the first, 65 to 68 °C for the second.

First: CSc1nc(N)c(N)c(=O)n1C
Second: CCOC(=O)c1sc2nc(C(C)C)ccc2c1N
The melting point of the first is higher: 211 to 212 °C for the first, 161 to 162 °C for the second.

Compared with `CCOC(=O)c1c2n(c3cc(N4CCN(Cc5oc(=O)oc5C)CC4)c(F)cc3c1=O)C(C)S2` (stereo not given), `CC1CC(=O)c2c(C(=O)Nc3ccc4c(c3)OC(C)(C)O4)c[nH]c2C1` (stereo not given) is higher in melting point: 241 to 243 °C for the first, 297 to 299 °C for the second.

First: CCOc1cc2c(cc1OCC)C(C(C#N)SCCC(=O)O)=NCC2 (stereo not given)
Second: CCCc1c(Cc2ccccc2)ccc2c(=O)cc(CCC(=O)O)oc12
The melting point of the first is lower: 106 to 108 °C for the first, 160 to 161 °C for the second.

Compared with `Cc1ccc2c(c1)Nc1ncccc1NC2=O`, `Cc1ccc(Sc2ccc3c(c2)CC[C@H]2NC(=O)CC[C@]32C)cc1` is lower in melting point: 286 to 288 °C for the first, 209 to 212 °C for the second.

First: CC(C)(C)OC(=O)NC(=Cc1ncoc1C(C)(C)C)C(=O)OC(C)(C)C
Second: COC1=C(OC)C(=O)C2=C(CC(CCCCOc3ccc(C(=O)O)cc3)C2)C1=O
The melting point of the first is higher: 170 to 172 °C for the first, 149 to 153 °C for the second.

First: Cn1ncc(-c2ccc(OCCCCl)cc2)cc1=O
Second: CN1C(=O)C(C)(Cc2ccccc2)N(C)C(=O)C1=Cc1cccnc1C#N (stereo not given)
The melting point of the first is lower: 90 to 91 °C for the first, 163 °C for the second.

Compared with `C#CCOc1cccnc1Cl`, `C(=Cc1ncon1)c1ccccc1` is higher in melting point: 78 to 79 °C for the first, 82 °C for the second.

Compared with `Nc1ccc(C(=O)c2ccncc2)cc1N`, `O=Cc1cccc(OC(=O)C(=O)Oc2cccc(C=O)c2)c1` is lower in melting point: 210 to 214 °C for the first, 163 to 166 °C for the second.

First: CCS(=O)(=O)C1C(OC)(OC)CC2C3CCC4=CC(=O)C=CC4(C)C3(F)C(O)CC21C (stereo not given)
Second: CC1(C)CC(NC(=O)Nc2ccc(C(F)(F)F)cc2)CC(C)(C)C1=O
The melting point of the first is higher: 268 to 270 °C for the first, 152 to 153 °C for the second.

First: CC(=O)NC[C@H]1CN(c2ccc(N3CCC4(CC3)COCO4)cc2)C(=O)O1
Second: O=C1c2c(O)ccc(O)c2C(=O)c2c(NCCN3CCC(O)C3)ccc(NCCN3CCC(O)C3)c21 (stereo not given)
The melting point of the first is lower: 134 to 138 °C for the first, 197 to 199 °C for the second.

First: COc1cccc(COc2cc3c(cc2-c2cc(C=CC(=O)O)ccc2O)C(C)(C)CCC3(C)C)c1
Second: CC1(C)CCCNc2ccc([N+](=O)[O-])cc21
The melting point of the first is higher: 113 to 115 °C for the first, 99 °C for the second.

First: CCCCCCCCCCCCCCCCNc1ccc(C2=NCCO2)cc1
Second: CC(C)(C#N)C(O)(CCc1ccc(F)cc1)Cn1cncn1 (stereo not given)
The melting point of the first is lower: 123 to 125 °C for the first, 152 to 154 °C for the second.

First: O=C(NS(=O)(=O)C=Cc1ccccc1)N1CCCC1
Second: Fc1ccc(Cn2c(NC3CCN(CCOc4nc5ccccc5s4)CC3)nc3ccccc32)cc1
The melting point of the first is higher: 201 to 204 °C for the first, 147 °C for the second.

First: O=C(O)Cn1c(=O)sc2cc(Br)c(Cl)cc21
Second: Cc1c(C(=O)Nc2ccc(N(CCO)CCO)c(C#N)c2)c2cc(F)ccc2n1CC(=O)O
The melting point of the first is higher: 249 to 252 °C for the first, 150 to 153 °C for the second.
